Laboratory results reported in patent publication US20240376076A1, “INHIBITORS TARGETING UBIQUITIN SPECIFIC PROTEASE 7 (USP7)” (Dana-Farber Cancer Institute, Inc., priority 2021, published 2024).

Experiments:
[1] = mouse liver microsomal stability (Microsome Assay Protocol); type: in vitro ADME; details: pH 7.4; mouse liver microsomes, NADPH, 37° C.; read-out: MLM t1/2, min
Procedure: (§1) ND refers to not disclosed.
• 1. Buffer A: 1.0 L of 0.1 M monobasic Potassium Phosphate buffer containing 1.0 mM EDTA Buffer B: 1.0 L of 0.1 M Dibasic Potassium Phosphate buffer containing 1.0 mM EDTA • Buffer C: 0.1 M Potassium Phosphate buffer, 1.0 mM EDTA, pH 7.4 by titrating 700 mL of buffer B with buffer A while monitoring with a pH meter. • 2. Reference compound (Ketanserin) and test compounds spiking solution: • 500 μM spiking solution: added 10 μL of 10 mM DMSO stock solution into 190 μL ACN. • 1.5 μM spiking solution in microsomes (0.75 mg/mL): added 1.5 μL of 500 μM spiking solution and 18.75 μL of 20 mg/mL liver microsomes into 479.75 μL of Buffer C on ice. • 3. Prepared NADPH stock solution (6 mM) by dissolving NADPH into buffer C. Dispensed 30 μL of 1.5 μM spiking solution containing 0.75 mg/mL microsomes solution to the assay plates designated for different time points (0-, 5-, 15-, 30-, 45-min) on ice. For 0-min, added 135 μL of ACN containing IS to the wells of 0-min plate and then added 15 μL of NADPH stock solution (6 mM). Pre-incubated all other plates at 37° C. for 5 minutes. Added 15 μL of NADPH stock solution (6 mM) to the plates to start the reaction and timing. At 5-min, 15-min, 30-min, and 45-min, added 135 μL of ACN containing IS to the wells of corresponding plates, respectively, to stop the reaction. After quenching, shook the plates at the vibrator (IKA, MTS 2/4) for 10 min (600 rpm/min) and then centrifuged at 5594 g for 15 min (Thermo Multifuge×3R). Transferred 50 μL of the supernatant from each well into a 96-well sample plate containing 50 μL of ultra pure water (Millipore, ZMQS50F01) for LC/MS analysis.

[2] = molecular target: T1, USP7, Active human recombinant protein (Homo sapiens, UniProt Q93009); test: USP7 assay (Ubiquitin-Rhodamine 110 enzymatic assay); type: biochemical; details: read-out: IC50
T1 construct: purchased CP Lot; 20200225001
T1 sequence (Q93009 whole entry): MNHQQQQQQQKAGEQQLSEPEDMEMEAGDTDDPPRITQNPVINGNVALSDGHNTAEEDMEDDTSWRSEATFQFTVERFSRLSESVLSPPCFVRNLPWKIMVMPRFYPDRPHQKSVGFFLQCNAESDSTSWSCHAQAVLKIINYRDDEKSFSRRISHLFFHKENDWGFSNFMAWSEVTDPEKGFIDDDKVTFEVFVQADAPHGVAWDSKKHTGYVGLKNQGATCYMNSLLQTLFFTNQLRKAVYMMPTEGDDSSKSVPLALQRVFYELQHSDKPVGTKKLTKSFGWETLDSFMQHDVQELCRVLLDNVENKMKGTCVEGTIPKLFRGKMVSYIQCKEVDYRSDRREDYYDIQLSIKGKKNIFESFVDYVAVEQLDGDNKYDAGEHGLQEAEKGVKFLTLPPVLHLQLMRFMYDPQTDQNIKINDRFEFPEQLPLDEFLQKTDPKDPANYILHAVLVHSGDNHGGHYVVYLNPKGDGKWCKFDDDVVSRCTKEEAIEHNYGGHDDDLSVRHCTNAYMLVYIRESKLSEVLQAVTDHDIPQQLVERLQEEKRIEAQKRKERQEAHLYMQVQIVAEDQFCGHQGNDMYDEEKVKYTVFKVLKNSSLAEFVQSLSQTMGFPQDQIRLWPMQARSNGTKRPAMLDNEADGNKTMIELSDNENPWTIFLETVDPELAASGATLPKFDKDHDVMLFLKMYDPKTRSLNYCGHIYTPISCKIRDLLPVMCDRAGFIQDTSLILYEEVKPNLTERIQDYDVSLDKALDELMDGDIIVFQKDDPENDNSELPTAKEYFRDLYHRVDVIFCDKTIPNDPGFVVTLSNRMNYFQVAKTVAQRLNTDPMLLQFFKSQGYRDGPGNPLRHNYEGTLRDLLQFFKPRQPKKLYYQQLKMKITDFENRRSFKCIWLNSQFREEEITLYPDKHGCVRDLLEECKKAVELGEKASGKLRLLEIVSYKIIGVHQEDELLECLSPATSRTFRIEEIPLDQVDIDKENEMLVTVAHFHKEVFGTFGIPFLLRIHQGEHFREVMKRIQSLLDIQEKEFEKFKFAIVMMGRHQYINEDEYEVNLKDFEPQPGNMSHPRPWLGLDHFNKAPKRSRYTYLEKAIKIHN
Procedure: Enzymatic Assays with Exemplary USP7 Irreversible Inhibitors
as §1
USP7, Active human recombinant protein (CP, Lot. 20200225001), Ubiquitin-Rhodamine 110 (Rh110) (BostonBiochem, Cat. No. U-555), DMSO (Sigma, Cat. N34869), DTT (Sangon Biotech, Cat. No. A620058-0005), […] Tris pH 8.0 (Sigma, Cat. No. T2694-1L), Tween-20 (Sigma, Cat. No. P2287-100ML), EDTA (Invitrogen, Cat. No. 15575020, BSA (Sigma, Cat. No. B2064-100G), 384-well assay plate (Corning, Cat. No. 3573), Echo Qualified 384-Well Polypropylene Microplate 2.0, Clear, Flat Bottom (LABCYTE, Cat. No. 001-14555).
Dilute the compounds to 400× of the final desired highest inhibitor concentration in reaction by 100% DMSO. For all compounds, transfer the compounds to one well in a 384-well Echo plate and serially dilute the compound by 3-fold dilution of 100% DMSO in the next well and so forth for a total of 10 concentrations by Precision. Add 30 μL of 100% DMSO to two empty wells for no compound control and no enzyme control in the same 384-well Echo plate. Make the plate as a source plate.
For USP7 assay, transfer 50 nL of each well from the source plate to a 384-well assay plate (OptiPlate TM-384 F black assay plates) by Echo 550 Liquid Handler.
Added appropriate amount of USP7 in 1× assay Buffer to prepare 2× enzyme solution (USP7 final concentration: 0.05 nM). Added appropriate amount of Ubiquitin-Rhodamine 110 in 1× assay Buffer to prepare 2× substrate solution (Ubiquitin-Rhodamine 110 final concentration: 190 nM). Added 10 μL of 2× enzyme solution to each reaction well of the 384-well assay plate, except for control wells without enzyme (add 10 μL of 1× Assay Buffer instead as for low control). […] Transferred 2× substrate solution to the assay plate. Added 10 μL of 2× substrate solution to each well of the 384-well assay plate to start reaction. Centrifuged at 1000 rpm for 1 min. Read the plate kinetically on SpectraMax Paradigm for 20 min with excitation at 485 nm and emission at 535 nm. Copied raw data (slope) from Reader to obtain inhibition values in Excel using equation (1): […]
Max signal was obtained from the action of Enzyme and Substrate. Min signal was obtained from the Substrate only. To fit the data in XLFit excel add-in version 5.4.0.8 to obtain IC50 values used equation (2): […]
Y is % inhibition and X is compound concentration.

| SMILES | half-life at 1 µM [1] [min] | IC50 [2] [nM] |
| --- | --- | --- |
| CC(c1ccccc1)C(CCCNC(=O)c1ccc2c(Cl)cc(C3CC3)nc2c1)C(=O)N1CCC(O)(Cn2cnc3cc(OCCCN(C)C)ccc3c2=O)CC1 (stereo not shown) | 7.27 | 20 to 100 |
| CN1CCN(CCC(=O)Nc2ccc3c(=O)n(CC4(O)CCN(C(=O)C(CCCNC(=O)c5ccc6c(Cl)cc(-c7ccc(F)cc7)nc6c5)Cc5ccccc5)CC4)cnc3c2)CC1 (stereo not shown) | 22.7 | 100 to 1000 |
| O=C(CN1CCN(C(=O)c2ccc3c(Cl)c4c(nc3c2)CCCC4)CC1)N1CCC(O)(Cn2cnc3cc(Cl)ccc3c2=O)CC1 | 2.31 | > 1000 |
| CN(C)CCCOc1ccc2c(=O)n(CC3(O)CCN(C(=O)[C@H](CCCNC(=O)c4ccc5c(Cl)c(C#N)cnc5c4)Cc4ccccc4)CC3)cnc2c1 | 1.67 | < 20 |
| CN(C)CCCOc1ccc2c(=O)n(CC3(O)CCN(C(=O)[C@H](CCCNC(=O)c4ccc5c(Cl)c(C6CC6)cnc5c4)Cc4ccccc4)CC3)cnc2c1 | 31.9 | < 20 |
| CN(C)CCCOc1ccc2c(=O)n(CC3(O)CCN(C(=O)[C@H](CCCNC(=O)c4cnc5c(Cl)ccnc5c4)Cc4ccccc4)CC3)cnc2c1 | 44 | 100 to 1000 |
| CN(C)CCCOc1ccc2c(=O)n(CC3(O)CCN(C(=O)C(CCCNC(=O)c4ccc5c(Cl)c(CO)cnc5c4)Cc4ccccc4)CC3)cnc2c1 (stereo not shown) | 57.6 | < 20 |
| CN(C)CCCOc1ccc2c(=O)n(CC3(O)CCN(C(=O)[C@@H](CCCNC(=O)c4ccc5c(Cl)c(C(N)=O)cnc5c4)Cc4ccccc4)CC3)cnc2c1 | 30.2 | < 20 |
| CN(C)CCCOc1ccc2c(=O)n(CC3(O)CCN(C(=O)[C@H](CCCNC(=O)c4ccc5c(Cl)c(C(=O)N(C)C)cnc5c4)Cc4ccccc4)CC3)cnc2c1 | 33.8 | 100 to 1000 |
| CN(C)CCCOc1ccc2c(=O)n(CC3(O)CCN(C(=O)[C@@H](CCCNC(=O)c4ccc5c(Cl)c(C(=O)NC6CC6)cnc5c4)Cc4ccccc4)CC3)cnc2c1 | 62.4 | < 20 |
| CN(C)CCCOc1ccc2c(=O)n(CC3(O)CCN(C(=O)[C@H](CCCNC(=O)c4ccc5c(Cl)c6c(nc5c4)CCNC6=O)Cc4ccccc4)CC3)cnc2c1 | 10.2 | 100 to 1000 |
| CN(C)CCCOc1ccc2c(=O)n(CC3(O)CCN(C(=O)C(CCCNC(=O)c4ccc5c(Cl)c6c(nc5c4)CCN(C)C6=O)Cc4ccccc4)CC3)cnc2c1 (stereo not shown) | 14.4 | 20 to 100 |
| CN(C)CCCOc1ccc2c(=O)n(CC3(O)CCN(C(=O)C(CCCNC(=O)c4ccc5c(Cl)c6c(nc5c4)CN(C)C6=O)Cc4ccccc4)CC3)cnc2c1 (stereo not shown) | 11.3 | < 20 |
| CN(C)CCCOc1ccc2c(=O)n(CC3(O)CCN(C(=O)C(CCCNC(=O)c4ccc5c(Cl)c6c(nc5c4)C(C)(C)NC6=O)Cc4ccccc4)CC3)cnc2c1 (stereo not shown) | 16.3 | > 1000 |
| CN(C)CCCOc1ccc2c(=O)n(CC3(O)CCN(C(=O)C(CCNC(=O)c4ccc5c(Cl)c(C(N)=O)cnc5c4)Cc4ccccc4)CC3)cnc2c1 (stereo not shown) | 28.2 | < 20 |
| CN(C)CCCOc1ccc2c(=O)n(CC3(O)CCN(C(=O)C(Cc4ccccc4)NCCNC(=O)c4ccc5c(Cl)c(C(N)=O)cnc5c4)CC3)cnc2c1 (stereo not shown) | 65.5 | < 20 |

| SMILES | half-life at 1 µM [1] [min] | IC50 [2] [nM] |
| --- | --- | --- |
| CN(C)CCCOc1ccc2c(=O)n(CC3(O)CCN(C(=O)C(Cc4ccccc4)N(C)CCNC(=O)c4ccc5c(Cl)c(C(N)=O)cnc5c4)CC3)cnc2c1 (stereo not shown) | 36.4 | < 20 |
| CN(C)CCCOc1cc2ncn(CC3(O)CCN(C(=O)[C@@H](CCCNC(=O)c4ccc5c(Cl)cc(C6CC6)nc5c4)Cc4ccccc4)CC3)c(=O)c2cc1F | 22.1 | < 20 |
| CN(C)CCCNc1cc2ncn(CC3(O)CCN(C(=O)[C@@H](CCCNC(=O)c4ccc5c(Cl)cc(C6CC6)nc5c4)Cc4ccccc4)CC3)c(=O)c2cc1F | 18.6 | < 20 |
| CN(C)CCCOc1ccc2c(=O)n(CC3(O)CCN(C(=O)C(Cn4ccc(F)n4)N(C)CCNC(=O)c4ccc5c(Cl)c(C(N)=O)cnc5c4)CC3)cnc2c1 (stereo not shown) | 106 | 20 to 100 |
| CN(C)CCCOc1ccc2c(=O)n(CC3(O)CCN(C(=O)C(CCCNC(=O)c4ccc5c(Cl)c(C(=O)NC6CC6)cnc5c4)Cn4ccc(F)n4)CC3)cnc2c1 (stereo not shown) | 152 | < 20 |
| CN(C)CCCOc1ccc2c(=O)n(CC3(O)CCN(C(=O)C(Cc4ccccc4)N(C)CCNC(=O)c4ccc5c(Cl)c(C(=O)NC6CC6)cnc5c4)CC3)cnc2c1 (stereo not shown) | 46.5 | 20 to 100 |
| NC(=O)c1cnc2cc(C(=O)NCCCC(Cn3ccc(F)n3)C(=O)N3CCC(O)(Cn4cnc5ccccc5c4=O)CC3)ccc2c1Cl (stereo not shown) | 6.51 | 20 to 100 |
| O=C(NCCCC(Cn1ccc(F)n1)C(=O)N1CCC(O)(Cn2cnc3ccccc3c2=O)CC1)c1ccc2c(Cl)c(C(=O)NC3CC3)cnc2c1 (stereo not shown) | 4.61 | 20 to 100 |
| O=C(NCCCC(Cc1ccccc1)C(=O)N1CCC(O)(Cn2cnc3c(cnn3-c3ccc(F)cc3)c2=O)CC1)c1ccc2c(Cl)ccnc2c1 (stereo not shown) [Compound 6, N-(4-benzyl-5-(4-((1-(4-fluorophenyl)-4-oxo-1,4-dihydro-5H-pyrazolo[3,4-d]pyrimidin-5-yl)methyl)-4-hydroxypiperidin-1-yl)-5-oxopentyl)-4-chloroquinoline-7-carboxamide] | 1 | 20 to 100 |
| Nc1ccc(-n2ncc3c(=O)n(CC4(O)CCN(C(=O)C(CCCNC(=O)c5ccc6c(Cl)ccnc6c5)Cc5ccccc5)CC4)cnc32)cc1 (stereo not shown) [Compound 7, N-(5-(4-((1-(4-aminophenyl)-4-oxo-1,4-dihydro-5H-pyrazolo[3,4-d]pyrimidin-5-yl)methyl)-4-hydroxypiperidin-1-yl)-4-benzyl-5-oxopentyl)-4-chloroquinoline-7-carboxamide] | 4.3 | < 20 |
| CN(C)CCCOc1ccc2c(=O)n(CC3(O)CCN(C(=O)[C@H](CCCNC(=O)c4ccc5c(Cl)c(C(F)F)cnc5c4)Cc4ccccc4)CC3)cnc2c1 [Compound 130] |  | < 20 |
| CN(C)CCCOc1ccc2c(=O)n(CC3(O)CCN(C(=O)[C@H](CCCNC(=O)c4ccc5c(Cl)c(F)cnc5c4)Cc4ccccc4)CC3)cnc2c1 [Compound 131] |  | 100 to 1000 |
| O=C(NCCC[C@H](Cc1ccccc1)C(=O)N1CCC(O)(Cn2cnc3cc(-c4ncc(CN5CCNCC5)o4)ccc3c2=O)CC1)c1ccc2c(Cl)cc(C3CC3)nc2c1 [Compound 135] |  | 20 to 100 |
| CN(C)CCCNc1ccc2c(=O)n(CC3(O)CCN(C(=O)[C@H](CCCNC(=O)c4ccc5c(Cl)cc(C6CC6)nc5c4)Cc4ccccc4)CC3)cnc2c1 [Compound 136] |  | < 20 |
| COc1cc2c(=O)n(CC3(O)CCN(C(=O)[C@H](CCCNC(=O)c4ccc5c(Cl)cc(C6CC6)nc5c4)Cc4ccccc4)CC3)cnc2cc1OCCCN(C)C [Compound 138] |  | 20 to 100 |
| O=C(NCCN1CC[C@@H](C(=O)N2CCC(O)(Cn3cnc4cc(-c5nc(CN6CCNCC6)co5)ccc4c3=O)CC2)[C@H](c2ccccc2)C1)c1ccc2c(Cl)ccnc2c1 [Compound 144] |  | 20 to 100 |
